Reference: publication PMC7385619, “A triple action CDK4/6-PI3K-BET inhibitor with augmented cancer cell cytotoxicity” (Cell Discovery, 2020)
Read-outs that look alike come from different tables or passages of the source.

Tests used:
Experiment in all cases: KINOMEscan assay (Eurofins DiscoverX)
Assay type in all cases: binding
kinome (kinase panel) [1] = target: T1, kinome (kinase panel) (Homo sapiens, UniProt O94806); details: PRKD3; 1000 nM; read-out: Percent Control
T1 construct: purchased Eurofins DiscoverX

kinome (kinase panel) [2] = target: T2, kinome (kinase panel) (Homo sapiens, UniProt O15197); details: EPHB6; 1000 nM; read-out: Percent Control
T2 construct: purchased Eurofins DiscoverX

kinome (kinase panel) [3] = target: T3, kinome (kinase panel) (Homo sapiens, UniProt P27361); details: ERK1 (Entrez MAPK3); 1000 nM; read-out: Percent Control
T3 construct: purchased Eurofins DiscoverX

kinome (kinase panel) [4] = target: T4, kinome (kinase panel) (Homo sapiens, UniProt P54764); details: EPHA4; 1000 nM; read-out: Percent Control
T4 construct: purchased Eurofins DiscoverX
T4 sequence (P54764 20-986): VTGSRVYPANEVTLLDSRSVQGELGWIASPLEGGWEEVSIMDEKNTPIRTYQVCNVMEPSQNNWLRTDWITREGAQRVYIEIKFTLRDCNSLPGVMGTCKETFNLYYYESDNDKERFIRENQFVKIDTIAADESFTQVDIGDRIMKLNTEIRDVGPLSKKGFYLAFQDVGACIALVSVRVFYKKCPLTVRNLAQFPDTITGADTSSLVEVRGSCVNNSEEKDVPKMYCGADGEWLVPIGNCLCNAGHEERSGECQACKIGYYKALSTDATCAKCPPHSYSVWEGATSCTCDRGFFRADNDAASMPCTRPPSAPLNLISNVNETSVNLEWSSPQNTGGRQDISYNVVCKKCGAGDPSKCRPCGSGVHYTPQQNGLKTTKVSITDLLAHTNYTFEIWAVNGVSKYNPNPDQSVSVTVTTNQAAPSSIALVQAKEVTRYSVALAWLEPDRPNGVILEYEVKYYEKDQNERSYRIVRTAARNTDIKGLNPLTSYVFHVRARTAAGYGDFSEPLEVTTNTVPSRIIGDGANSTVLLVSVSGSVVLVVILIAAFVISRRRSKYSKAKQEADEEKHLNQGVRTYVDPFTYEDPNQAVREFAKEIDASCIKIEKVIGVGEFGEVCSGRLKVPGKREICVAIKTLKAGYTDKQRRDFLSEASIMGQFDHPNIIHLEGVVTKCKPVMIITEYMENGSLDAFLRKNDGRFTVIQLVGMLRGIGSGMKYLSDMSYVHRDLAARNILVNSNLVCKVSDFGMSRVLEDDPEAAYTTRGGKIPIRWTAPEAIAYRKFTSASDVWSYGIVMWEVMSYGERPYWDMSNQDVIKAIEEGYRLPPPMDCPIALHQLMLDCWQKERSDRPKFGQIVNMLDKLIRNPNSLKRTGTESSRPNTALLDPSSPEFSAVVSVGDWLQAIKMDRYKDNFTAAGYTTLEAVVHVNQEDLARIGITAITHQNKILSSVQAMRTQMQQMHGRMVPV

kinome (kinase panel) [5] = target: T5, kinome (kinase panel) (Homo sapiens, UniProt Q13177); details: PAK2; 1000 nM; read-out: Percent Control
T5 construct: purchased Eurofins DiscoverX

kinome (kinase panel) [6] = target: T6, kinome (kinase panel) (Homo sapiens, UniProt P29376); details: LTK; 1000 nM; read-out: Percent Control
T6 construct: purchased Eurofins DiscoverX

kinome (kinase panel) [7] = target: T7, kinome (kinase panel) (Homo sapiens, UniProt P53350); details: PLK1; 1000 nM; read-out: Percent Control
T7 construct: purchased Eurofins DiscoverX

kinome (kinase panel) [8] = target: T8, kinome (kinase panel) (Plasmodium falciparum, UniProt P61075); details: PFPK5(P.falciparum) (Entrez MAL13P1.279); 1000 nM; read-out: Percent Control
T8 construct: purchased Eurofins DiscoverX
T8 sequence (P61075 whole entry): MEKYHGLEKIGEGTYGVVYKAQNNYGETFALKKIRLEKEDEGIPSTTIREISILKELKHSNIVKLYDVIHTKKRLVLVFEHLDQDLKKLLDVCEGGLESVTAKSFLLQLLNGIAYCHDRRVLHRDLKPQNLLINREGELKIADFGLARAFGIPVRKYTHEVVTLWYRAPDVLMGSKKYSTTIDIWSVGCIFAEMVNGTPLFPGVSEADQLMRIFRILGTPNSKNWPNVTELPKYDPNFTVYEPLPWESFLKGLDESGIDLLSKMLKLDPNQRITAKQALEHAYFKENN

kinome (kinase panel) [9] = target: T9, kinome (kinase panel) (Homo sapiens, UniProt P43405); details: SYK; 1000 nM; read-out: Percent Control
T9 construct: purchased Eurofins DiscoverX

kinome (kinase panel) [10] = target: T10, kinome (kinase panel) (Homo sapiens, UniProt Q96Q40); details: PFTAIRE2 (Entrez CDK15); 1000 nM; read-out: Percent Control
T10 construct: purchased Eurofins DiscoverX
T10 sequence (Q96Q40 whole entry): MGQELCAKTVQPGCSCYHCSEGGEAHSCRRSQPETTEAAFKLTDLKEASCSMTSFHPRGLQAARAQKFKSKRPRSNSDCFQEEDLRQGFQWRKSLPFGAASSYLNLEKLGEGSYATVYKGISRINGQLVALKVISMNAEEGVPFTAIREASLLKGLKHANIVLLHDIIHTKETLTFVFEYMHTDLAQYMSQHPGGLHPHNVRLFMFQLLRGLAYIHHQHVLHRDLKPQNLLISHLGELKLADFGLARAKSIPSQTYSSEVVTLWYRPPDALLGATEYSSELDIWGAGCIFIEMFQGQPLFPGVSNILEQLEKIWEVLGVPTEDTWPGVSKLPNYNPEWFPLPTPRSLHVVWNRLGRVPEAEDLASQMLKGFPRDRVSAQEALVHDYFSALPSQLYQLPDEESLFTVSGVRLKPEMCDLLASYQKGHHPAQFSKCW

kinome (kinase panel) [11] = target: T11, kinome (kinase panel) (Homo sapiens, UniProt Q2M2I8); details: AAK1; 1000 nM; read-out: Percent Control
T11 construct: purchased Eurofins DiscoverX

kinome (kinase panel) [12] = target: T12, kinome (kinase panel) (Homo sapiens, UniProt Q9UQB9); details: AURKC; 1000 nM; read-out: Percent Control
T12 construct: purchased Eurofins DiscoverX

kinome (kinase panel) [13] = target: T13, kinome (kinase panel) (Homo sapiens, UniProt P36888, D835V); details: […]; 1000 nM; read-out: Percent Control
T13 construct: purchased Eurofins DiscoverX

kinome (kinase panel) [14] = target: T14, kinome (kinase panel) (Homo sapiens, UniProt P07949); details: RET; 1000 nM; read-out: Percent Control
T14 construct: purchased Eurofins DiscoverX

kinome (kinase panel) [15] = target: T15, kinome (kinase panel) (Homo sapiens, UniProt Q12852); details: DLK (Entrez MAP3K12); 1000 nM; read-out: Percent Control
T15 construct: purchased Eurofins DiscoverX

kinome (kinase panel) [16] = target: T16, kinome (kinase panel) (Homo sapiens, UniProt Q96D53); details: ADCK4; 1000 nM; read-out: Percent Control
T16 construct: purchased Eurofins DiscoverX

kinome (kinase panel) [17] = target: T17, kinome (kinase panel) (Homo sapiens, UniProt Q02156); details: PRKCE; 1000 nM; read-out: Percent Control
T17 construct: purchased Eurofins DiscoverX

kinome (kinase panel) [18] = target: T18, kinome (kinase panel) (Homo sapiens, UniProt O43683); details: BUB1; 1000 nM; read-out: Percent Control
T18 construct: purchased Eurofins DiscoverX

kinome (kinase panel) [19] = target: T19, kinome (kinase panel) (Homo sapiens, UniProt P23458); details: 1000 nM, read-out: Percent Control
T19 construct: purchased Eurofins DiscoverX
T19 sequence (P23458 whole entry): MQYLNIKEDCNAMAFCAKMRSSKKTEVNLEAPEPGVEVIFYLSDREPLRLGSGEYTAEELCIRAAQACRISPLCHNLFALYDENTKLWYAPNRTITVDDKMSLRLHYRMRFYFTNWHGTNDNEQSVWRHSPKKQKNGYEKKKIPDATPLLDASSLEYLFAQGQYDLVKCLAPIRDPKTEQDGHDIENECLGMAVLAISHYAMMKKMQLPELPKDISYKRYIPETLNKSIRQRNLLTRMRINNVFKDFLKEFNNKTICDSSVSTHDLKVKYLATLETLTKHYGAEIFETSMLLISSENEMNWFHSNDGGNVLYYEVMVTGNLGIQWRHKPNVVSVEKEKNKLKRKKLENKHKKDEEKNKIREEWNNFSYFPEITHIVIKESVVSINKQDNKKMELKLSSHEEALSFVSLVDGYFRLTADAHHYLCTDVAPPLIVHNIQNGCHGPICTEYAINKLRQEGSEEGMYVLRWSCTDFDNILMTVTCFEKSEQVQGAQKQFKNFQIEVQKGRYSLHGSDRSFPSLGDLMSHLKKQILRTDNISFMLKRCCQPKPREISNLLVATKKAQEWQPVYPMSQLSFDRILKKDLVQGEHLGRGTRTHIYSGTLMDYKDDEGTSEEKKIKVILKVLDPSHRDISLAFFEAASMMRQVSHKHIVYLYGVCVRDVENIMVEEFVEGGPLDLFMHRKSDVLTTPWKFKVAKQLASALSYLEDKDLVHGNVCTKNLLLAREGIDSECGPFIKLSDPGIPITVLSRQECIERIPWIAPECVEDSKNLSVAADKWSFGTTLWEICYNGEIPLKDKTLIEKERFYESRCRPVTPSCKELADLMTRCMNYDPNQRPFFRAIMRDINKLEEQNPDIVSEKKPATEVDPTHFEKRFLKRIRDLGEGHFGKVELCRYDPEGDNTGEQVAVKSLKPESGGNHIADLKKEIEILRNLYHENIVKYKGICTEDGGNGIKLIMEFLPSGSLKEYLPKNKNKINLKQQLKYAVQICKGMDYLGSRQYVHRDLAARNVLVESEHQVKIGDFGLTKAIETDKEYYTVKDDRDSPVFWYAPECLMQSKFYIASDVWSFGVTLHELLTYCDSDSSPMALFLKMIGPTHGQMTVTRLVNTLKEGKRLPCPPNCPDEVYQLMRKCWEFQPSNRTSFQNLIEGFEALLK

kinome (kinase panel) [20] = target: T20, kinome (kinase panel) (Homo sapiens, UniProt Q96GD4); details: AURKB; 1000 nM; read-out: Percent Control
T20 construct: purchased Eurofins DiscoverX

kinome (kinase panel) [21] = target: T21, kinome (kinase panel) (Homo sapiens, UniProt O75914); details: PAK3; 1000 nM; read-out: Percent Control
T21 construct: purchased Eurofins DiscoverX

kinome (kinase panel) [22] = target: T22, kinome (kinase panel) (Homo sapiens, UniProt P42336, H1047Y); details: read-out: Percent Control
T22 construct: purchased Eurofins DiscoverX

kinome (kinase panel) [23] = target: T23, kinome (kinase panel) (Homo sapiens, UniProt Q9UKI8); details: TLK1; 1000 nM; read-out: Percent Control
T23 construct: purchased Eurofins DiscoverX

kinome (kinase panel) [24] = target: T24, kinome (kinase panel) (Homo sapiens, UniProt Q9UBE8); details: NLK; 1000 nM; read-out: Percent Control
T24 construct: purchased Eurofins DiscoverX

kinome (kinase panel) [25] = target: T25, kinome (kinase panel) (Homo sapiens, UniProt Q13188); details: MST2 (Entrez STK3); 1000 nM; read-out: Percent Control
T25 construct: purchased Eurofins DiscoverX
T25 sequence (Q13188 whole entry): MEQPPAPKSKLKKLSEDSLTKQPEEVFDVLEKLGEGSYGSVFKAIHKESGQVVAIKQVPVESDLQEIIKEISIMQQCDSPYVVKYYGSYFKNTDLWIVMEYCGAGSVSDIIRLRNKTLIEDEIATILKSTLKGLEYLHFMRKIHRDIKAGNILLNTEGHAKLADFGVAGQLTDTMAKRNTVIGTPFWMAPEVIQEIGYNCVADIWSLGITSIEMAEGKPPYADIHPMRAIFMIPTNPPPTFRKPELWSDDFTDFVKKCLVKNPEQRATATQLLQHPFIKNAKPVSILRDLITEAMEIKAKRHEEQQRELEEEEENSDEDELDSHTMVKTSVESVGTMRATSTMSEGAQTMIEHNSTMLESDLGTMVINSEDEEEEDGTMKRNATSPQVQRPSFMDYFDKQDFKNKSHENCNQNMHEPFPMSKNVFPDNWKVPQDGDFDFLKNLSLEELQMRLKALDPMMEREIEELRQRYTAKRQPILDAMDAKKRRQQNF

kinome (kinase panel) [26] = target: T26, kinome (kinase panel) (Homo sapiens, UniProt P46734); details: MEK3 (Entrez MAP2K3); 1000 nM; read-out: Percent Control
T26 construct: purchased Eurofins DiscoverX

kinome (kinase panel) [27] = target: T27, kinome (kinase panel) (Homo sapiens, UniProt O95819); details: MAP4K4; 1000 nM; read-out: Percent Control
T27 construct: purchased Eurofins DiscoverX

kinome (kinase panel) [28] = target: T28, kinome (kinase panel) (Homo sapiens, UniProt P00533); details: EGFR; 1000 nM; read-out: Percent Control
T28 construct: purchased Eurofins DiscoverX

kinome (kinase panel) [29] = target: T29, kinome (kinase panel) (Homo sapiens, UniProt Q8IYT8); details: ULK2; 1000 nM; read-out: Percent Control
T29 construct: purchased Eurofins DiscoverX

kinome (kinase panel) [30] = target: T30, kinome (kinase panel) (Homo sapiens, UniProt P10721); details: 1000 nM, read-out: Percent Control
T30 construct: purchased Eurofins DiscoverX
T30 sequence (P10721 26-976): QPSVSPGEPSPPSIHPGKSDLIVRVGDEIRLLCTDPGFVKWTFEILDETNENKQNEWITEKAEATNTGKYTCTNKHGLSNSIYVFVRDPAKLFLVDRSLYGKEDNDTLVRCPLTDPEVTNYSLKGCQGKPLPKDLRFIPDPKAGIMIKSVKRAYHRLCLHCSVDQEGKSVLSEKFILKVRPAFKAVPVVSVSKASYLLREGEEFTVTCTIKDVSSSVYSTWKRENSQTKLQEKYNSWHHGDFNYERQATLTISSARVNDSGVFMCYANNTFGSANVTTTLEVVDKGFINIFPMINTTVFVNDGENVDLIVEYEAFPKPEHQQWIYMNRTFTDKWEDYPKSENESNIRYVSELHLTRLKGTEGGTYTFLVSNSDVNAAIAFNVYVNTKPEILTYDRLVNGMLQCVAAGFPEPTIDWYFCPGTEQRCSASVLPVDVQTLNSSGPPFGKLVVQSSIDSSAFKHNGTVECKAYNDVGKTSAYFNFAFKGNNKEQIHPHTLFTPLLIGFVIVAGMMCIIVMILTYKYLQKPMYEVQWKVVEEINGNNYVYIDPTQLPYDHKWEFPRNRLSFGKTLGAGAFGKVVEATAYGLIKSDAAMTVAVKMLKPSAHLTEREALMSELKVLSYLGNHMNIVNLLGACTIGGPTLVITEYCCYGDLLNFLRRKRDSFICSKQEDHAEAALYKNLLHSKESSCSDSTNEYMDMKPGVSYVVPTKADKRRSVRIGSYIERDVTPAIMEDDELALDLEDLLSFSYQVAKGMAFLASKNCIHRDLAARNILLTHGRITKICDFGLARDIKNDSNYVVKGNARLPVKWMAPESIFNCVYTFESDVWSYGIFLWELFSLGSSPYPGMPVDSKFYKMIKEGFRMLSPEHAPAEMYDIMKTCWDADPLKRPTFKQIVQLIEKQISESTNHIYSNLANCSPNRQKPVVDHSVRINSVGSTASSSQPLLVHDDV

kinome (kinase panel) [31] = target: T31, kinome (kinase panel) (Homo sapiens, UniProt O75116); details: ROCK2; 1000 nM; read-out: Percent Control
T31 construct: purchased Eurofins DiscoverX

kinome (kinase panel) [32] = target: T32, kinome (kinase panel) (Homo sapiens, UniProt Q99755); details: PIP5K1A; 1000 nM; read-out: Percent Control
T32 construct: purchased Eurofins DiscoverX
T32 sequence (Q99755 whole entry): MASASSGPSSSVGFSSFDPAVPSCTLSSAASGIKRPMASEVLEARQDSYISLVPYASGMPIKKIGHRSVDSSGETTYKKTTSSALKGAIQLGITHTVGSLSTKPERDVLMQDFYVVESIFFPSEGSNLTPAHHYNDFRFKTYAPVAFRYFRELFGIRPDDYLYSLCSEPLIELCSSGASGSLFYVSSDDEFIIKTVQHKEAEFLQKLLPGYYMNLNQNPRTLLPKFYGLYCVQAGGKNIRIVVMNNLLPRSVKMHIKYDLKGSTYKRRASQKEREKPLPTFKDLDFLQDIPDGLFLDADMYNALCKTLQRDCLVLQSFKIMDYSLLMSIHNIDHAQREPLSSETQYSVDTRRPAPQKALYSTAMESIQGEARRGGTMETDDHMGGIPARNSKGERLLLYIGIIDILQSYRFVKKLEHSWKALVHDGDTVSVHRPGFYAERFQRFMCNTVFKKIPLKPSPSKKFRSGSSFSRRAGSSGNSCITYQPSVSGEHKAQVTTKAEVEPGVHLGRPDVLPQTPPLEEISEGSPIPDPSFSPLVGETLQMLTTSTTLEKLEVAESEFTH

CN(C)C(=O)c1cc2cnc(Nc3ccc(-c4csc5c(=O)cc(N6CCOCC6)oc45)cc3)nc2n1C1CCCC1 [SRX3177]
remaining binding at 1 µM (kinome (kinase panel) [1]): 92% | remaining binding at 1 µM (kinome (kinase panel) [2]): 4.9% | remaining binding at 1 µM (kinome (kinase panel) [3]): 100% | remaining binding at 1 µM (kinome (kinase panel) [4]): 98% | remaining binding at 1 µM (kinome (kinase panel) [5]): 78% | remaining binding at 1 µM (kinome (kinase panel) [6]): 98% | remaining binding at 1 µM (kinome (kinase panel) [7]): 75% | remaining binding at 1 µM (kinome (kinase panel) [8]): 96% | remaining binding at 1 µM (kinome (kinase panel) [9]): 81% | remaining binding at 1 µM (kinome (kinase panel) [10]): 90% | remaining binding at 1 µM (kinome (kinase panel) [11]): 49% | remaining binding at 1 µM (kinome (kinase panel) [12]): 21% | remaining binding at 1 µM (kinome (kinase panel) [13]): 2.1% | remaining binding at 1 µM (kinome (kinase panel) [14]): 100% | remaining binding at 1 µM (kinome (kinase panel) [15]): 73% | remaining binding at 1 µM (kinome (kinase panel) [16]): 43% | remaining binding at 1 µM (kinome (kinase panel) [17]): 93% | remaining binding at 1 µM (kinome (kinase panel) [18]): 50% | remaining binding at 1 µM (kinome (kinase panel) [19]; JAK1(JH1domain-catalytic)): 96% | remaining binding at 1 µM (kinome (kinase panel) [19]; JAK1(JH2domain-pseudokinase)): 9.5% | remaining binding at 1 µM (kinome (kinase panel) [20]): 4.9% | remaining binding at 1 µM (kinome (kinase panel) [21]): 100% | remaining binding at 1 µM (kinome (kinase panel) [22]): 34% | remaining binding at 1 µM (kinome (kinase panel) [23]): 94% | remaining binding at 1 µM (kinome (kinase panel) [24]): 81% | remaining binding at 1 µM (kinome (kinase panel) [25]): 61% | remaining binding at 1 µM (kinome (kinase panel) [26]): 76% | remaining binding at 1 µM (kinome (kinase panel) [27]): 100% | remaining binding at 1 µM (kinome (kinase panel) [28]): 100% | remaining binding at 1 µM (kinome (kinase panel) [29]): 79% | remaining binding at 1 µM (kinome (kinase panel) [30]; KIT-autoinhibited): 73% | remaining binding at 1 µM (kinome (kinase panel) [30]; KIT): 68% | remaining binding at 1 µM (kinome (kinase panel) [31]): 46% | remaining binding at 1 µM (kinome (kinase panel) [32]): 21%
